{"source": "ChEMBL document CHEMBL5625223", "about": "(Eur J Med Chem, 2023)", "key": {"[1]": {"target": "T1, 5-hydroxytryptamine receptor 2A (Homo sapiens, UniProt P28223)", "T1 sequence (P28223 whole entry)": "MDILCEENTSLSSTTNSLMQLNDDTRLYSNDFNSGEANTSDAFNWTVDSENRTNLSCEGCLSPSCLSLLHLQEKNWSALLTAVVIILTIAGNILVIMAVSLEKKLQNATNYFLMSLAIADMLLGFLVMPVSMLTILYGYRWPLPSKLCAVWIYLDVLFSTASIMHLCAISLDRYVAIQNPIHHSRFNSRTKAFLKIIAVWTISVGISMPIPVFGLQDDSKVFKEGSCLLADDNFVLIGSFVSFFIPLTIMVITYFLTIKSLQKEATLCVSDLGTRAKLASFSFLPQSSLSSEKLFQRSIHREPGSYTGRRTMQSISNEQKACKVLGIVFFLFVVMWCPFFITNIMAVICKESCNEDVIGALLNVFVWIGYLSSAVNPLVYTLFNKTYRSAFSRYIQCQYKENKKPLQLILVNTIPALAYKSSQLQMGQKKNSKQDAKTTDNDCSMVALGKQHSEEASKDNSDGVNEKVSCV", "assay": "Binding affinity to 5HT2A receptor (unknown origin) at 10 uM relative to control"}, "[2]": {"target": "T2, 5-hydroxytryptamine receptor 2B (Homo sapiens, UniProt P41595)", "T2 sequence (P41595 whole entry)": "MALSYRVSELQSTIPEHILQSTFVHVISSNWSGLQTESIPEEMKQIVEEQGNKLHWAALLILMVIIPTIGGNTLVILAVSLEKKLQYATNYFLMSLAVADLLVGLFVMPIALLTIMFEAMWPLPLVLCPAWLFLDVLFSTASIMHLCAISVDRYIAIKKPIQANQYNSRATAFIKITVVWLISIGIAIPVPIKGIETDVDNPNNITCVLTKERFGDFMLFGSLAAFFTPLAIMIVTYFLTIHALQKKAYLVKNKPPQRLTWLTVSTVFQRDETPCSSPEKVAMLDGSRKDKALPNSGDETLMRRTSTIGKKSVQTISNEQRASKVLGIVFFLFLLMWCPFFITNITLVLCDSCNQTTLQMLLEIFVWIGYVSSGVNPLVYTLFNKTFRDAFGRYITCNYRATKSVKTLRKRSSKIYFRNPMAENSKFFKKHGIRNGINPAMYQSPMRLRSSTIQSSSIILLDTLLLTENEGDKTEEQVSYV", "assay": "Binding affinity to 5HT2B receptor (unknown origin) assessed as inhibition constant"}, "[3]": {"target": "T3, 5-hydroxytryptamine receptor 2C (Homo sapiens) (UniProt P28335)", "T3 sequence (whole entry)": "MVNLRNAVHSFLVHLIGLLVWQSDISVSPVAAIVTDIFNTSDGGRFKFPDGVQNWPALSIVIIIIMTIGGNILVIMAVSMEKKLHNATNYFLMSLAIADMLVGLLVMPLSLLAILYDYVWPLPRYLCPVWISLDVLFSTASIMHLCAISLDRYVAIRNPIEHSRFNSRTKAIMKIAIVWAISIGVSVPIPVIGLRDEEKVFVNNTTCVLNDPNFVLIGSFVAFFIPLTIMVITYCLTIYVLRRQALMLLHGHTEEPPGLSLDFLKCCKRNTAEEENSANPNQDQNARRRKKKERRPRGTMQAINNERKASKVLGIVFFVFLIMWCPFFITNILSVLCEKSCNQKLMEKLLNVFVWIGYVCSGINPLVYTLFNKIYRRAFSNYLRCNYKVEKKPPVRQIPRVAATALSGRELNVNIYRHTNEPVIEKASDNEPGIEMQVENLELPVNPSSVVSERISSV", "assay": "Binding affinity to 5HT2C receptor (unknown origin) at 10 uM relative to control", "conditions": "filed as antagonist"}, "[4]": {"target": "T4, 5-hydroxytryptamine receptor 2C (Homo sapiens, UniProt P28335)", "T4 sequence (P28335 whole entry)": "T3 sequence (whole entry)", "assay": "Displacement of [3H]-Mesulergine from human 5-HT2C expressed in Flp-In-T-REx-293 cells assessed as inhibition constant incubated for 1 hr", "type": "cell-based", "conditions": "read-out: Ki"}, "[5]": {"target": "Adenosine receptor A2a (Homo sapiens) (UniProt P29274)", "sequence (P29274 whole entry)": "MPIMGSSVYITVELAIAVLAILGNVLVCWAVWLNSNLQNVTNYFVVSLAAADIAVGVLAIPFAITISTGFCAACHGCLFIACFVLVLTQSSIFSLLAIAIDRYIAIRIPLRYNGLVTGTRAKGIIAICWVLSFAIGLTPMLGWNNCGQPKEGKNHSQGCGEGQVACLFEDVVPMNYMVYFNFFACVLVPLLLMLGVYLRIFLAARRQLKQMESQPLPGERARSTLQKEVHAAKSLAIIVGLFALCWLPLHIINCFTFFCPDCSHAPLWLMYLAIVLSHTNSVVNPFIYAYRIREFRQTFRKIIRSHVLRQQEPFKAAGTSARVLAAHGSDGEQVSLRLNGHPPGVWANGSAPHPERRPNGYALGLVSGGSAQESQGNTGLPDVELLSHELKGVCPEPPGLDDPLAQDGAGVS", "assay": "Displacement of […] from human A2AR expressed in HEK cells at 10 uM relative to control", "type": "cell-based"}, "Adenosine receptor A3": {"target": "T5, Adenosine receptor A3 (Homo sapiens, UniProt P0DMS8)", "T5 sequence (P0DMS8 whole entry)": "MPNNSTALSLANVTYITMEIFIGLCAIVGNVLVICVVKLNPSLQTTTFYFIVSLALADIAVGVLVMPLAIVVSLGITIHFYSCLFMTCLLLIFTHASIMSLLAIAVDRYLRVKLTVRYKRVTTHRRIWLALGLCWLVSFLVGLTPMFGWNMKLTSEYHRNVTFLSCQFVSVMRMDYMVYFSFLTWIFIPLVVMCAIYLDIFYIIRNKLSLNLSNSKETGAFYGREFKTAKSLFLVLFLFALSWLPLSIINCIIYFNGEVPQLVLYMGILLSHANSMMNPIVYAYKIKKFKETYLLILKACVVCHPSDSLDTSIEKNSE", "assay": "Displacement of […] from human A3AR expressed in HEK cells assessed as inhibition constant", "type": "cell-based"}, "[6]": {"target": "T4, 5-hydroxytryptamine receptor 2C", "assay": "Binding affinity to 5HT2C receptor (unknown origin) assessed as inhibition constant"}, "[7]": {"target": "T1, 5-hydroxytryptamine receptor 2A", "assay": "Displacement of [3H]ketanserin from human 5-HT2A receptor expressed in HEK293 cells at 10 uM incubated for 1 hr relative to control", "type": "cell-based"}, "[8]": {"target": "T6, Alpha-2B adrenergic receptor (Homo sapiens, UniProt P18089)", "T6 sequence (P18089 whole entry)": "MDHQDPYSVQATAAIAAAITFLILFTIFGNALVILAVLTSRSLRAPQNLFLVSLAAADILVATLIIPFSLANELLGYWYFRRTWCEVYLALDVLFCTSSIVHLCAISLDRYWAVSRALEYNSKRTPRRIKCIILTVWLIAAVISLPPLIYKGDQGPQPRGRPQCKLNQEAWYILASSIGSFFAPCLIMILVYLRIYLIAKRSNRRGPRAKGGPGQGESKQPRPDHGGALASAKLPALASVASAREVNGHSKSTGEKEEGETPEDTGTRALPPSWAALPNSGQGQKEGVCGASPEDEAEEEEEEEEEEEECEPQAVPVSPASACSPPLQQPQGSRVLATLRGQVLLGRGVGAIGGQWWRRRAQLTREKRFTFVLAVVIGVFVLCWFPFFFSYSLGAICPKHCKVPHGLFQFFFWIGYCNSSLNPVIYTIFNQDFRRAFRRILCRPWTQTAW", "assay": "Binding affinity to alpha2B receptor (unknown origin) assessed as inhibition constant"}, "[9]": {"target": "T2, 5-hydroxytryptamine receptor 2B", "assay": "Displacement of [3H]-LSD from human 5-HT2B receptor expressed in HEK cells at 10 uM incubated for 1 hr relative to control", "type": "cell-based"}, "[10]": {"target": "T3, 5-hydroxytryptamine receptor 2C (Homo sapiens)", "assay": "Displacement of [3H]-Mesulergine from human 5-HT2C expressed in Flp-In-T-REx-293 cells at 10 uM incubated for 1 hr relative to control", "type": "cell-based"}, "[11]": {"target": "T7, Adenosine receptor A3 (Homo sapiens) (UniProt P0DMS8)", "T7 sequence (whole entry)": "T5 sequence (P0DMS8 whole entry)", "assay": "Displacement of […] from human A3AR expressed in HEK cells at 10 uM relative to control", "type": "cell-based"}, "Adenosine receptor A1": {"target": "T8, Adenosine receptor A1 (Homo sapiens, UniProt P30542)", "T8 sequence (P30542 whole entry)": "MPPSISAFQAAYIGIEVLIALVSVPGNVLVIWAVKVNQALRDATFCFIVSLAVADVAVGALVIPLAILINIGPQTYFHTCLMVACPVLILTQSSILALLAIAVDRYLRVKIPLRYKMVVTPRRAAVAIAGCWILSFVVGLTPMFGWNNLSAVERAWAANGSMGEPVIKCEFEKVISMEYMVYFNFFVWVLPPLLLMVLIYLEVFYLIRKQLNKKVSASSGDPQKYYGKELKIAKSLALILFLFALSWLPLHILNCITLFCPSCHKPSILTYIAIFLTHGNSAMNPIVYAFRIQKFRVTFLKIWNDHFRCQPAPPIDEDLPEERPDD", "assay": "Displacement of […] from human A1AR expressed in Flp-In-T-REx-293 cells assessed as inhibition constant", "type": "cell-based"}, "[12]": {"target": "T2, 5-hydroxytryptamine receptor 2B", "assay": "Displacement of [3H]-LSD from human 5-HT2B receptor expressed in HEK cells assessed as inhibition constant incubated for 1 hr", "type": "cell-based"}}, "note": "pKi: −log10 of the molar value."}
{"compound": "CNC(=O)[C@]12C[C@@H]1[C@@H](n1cnc3c(NC4CCCC4)nc(Cl)nc31)[C@H](O)[C@@H]2O", "values": [{"measurement": "Activity", "setting": "[1]", "value": 0, "unit": "%"}, {"measurement": "pKi", "setting": "[2]", "value": 7.11}, {"measurement": "Activity", "setting": "[3]", "value": 44, "unit": "%"}]}
{"compound": "O[C@H]1[C@H](n2cnc3c(NC(C4CCCCC4)C4CCCCC4)nc(Cl)nc32)[C@H]2C[C@@]2(CCl)[C@H]1O", "values": [{"measurement": "pKi", "setting": "[4]", "value": 7.13}, {"measurement": "Activity", "setting": "[5]", "value": -9, "unit": "%"}, {"measurement": "pKi", "setting": "Adenosine receptor A3", "value": 5.03}]}
{"compound": "O[C@H]1[C@H](n2cnc3c(NC(C4CCC4)C4CCC4)ncnc32)[C@H]2C[C@@]2(CCl)[C@H]1O", "values": [{"measurement": "Activity", "setting": "[1]", "value": 11, "unit": "%"}, {"measurement": "pKi", "setting": "[2]", "value": 5.96}, {"measurement": "pKi", "setting": "[6]", "value": 5.91}]}
{"compound": "OC[C@@]12C[C@@H]1[C@@H](n1cnc3c(NC(C4CCC4)C4CCC4)nc(Cl)nc31)[C@H](O)[C@@H]2O", "values": [{"measurement": "Activity", "setting": "[1]", "value": 8, "unit": "%"}, {"measurement": "pKi", "setting": "[6]", "value": 6.43}]}
{"compound": "CSC[C@@]12C[C@@H]1[C@@H](n1cnc3c(NC(C4CCCC4)C4CCCC4)nc(Cl)nc31)[C@H](O)[C@@H]2O", "values": [{"measurement": "Activity", "setting": "[7]; filed as antagonist", "value": 47, "unit": "%"}, {"measurement": "pKi", "setting": "[4]", "value": 6.32}, {"measurement": "Activity", "setting": "[5]", "value": -12, "unit": "%"}, {"measurement": "pKi", "setting": "Adenosine receptor A3", "value": 5.28}, {"measurement": "pKi", "setting": "[8]", "value": 5.77}]}
{"compound": "COCCN(CCOC)C(=O)[C@]12C[C@H]1[C@H](n1cnc3c(N)nc(Cl)nc31)[C@@H](O)[C@H]2O", "note": "(single isomer, unassigned)", "values": [{"measurement": "Activity", "setting": "[7]", "value": 3, "unit": "%"}, {"measurement": "Activity", "setting": "[9]", "value": 36, "unit": "%"}, {"measurement": "Activity", "setting": "[10]", "value": 12, "unit": "%"}, {"measurement": "Activity", "setting": "[11]; filed as agonist", "value": 51, "unit": "%"}]}
{"compound": "O[C@H]1[C@H](n2cnc3c(NC(C4CC4)C4CC4)nc(Cl)nc32)[C@H]2C[C@@]2(CF)[C@H]1O", "values": [{"measurement": "Activity", "setting": "[7]", "value": 14, "unit": "%"}, {"measurement": "Activity", "setting": "[10]; filed as antagonist", "value": 47, "unit": "%"}, {"measurement": "pKi", "setting": "Adenosine receptor A1", "value": 8.23}, {"measurement": "Activity", "setting": "[5]; filed as agonist", "value": 55, "unit": "%"}, {"measurement": "pKi", "setting": "Adenosine receptor A3", "value": 5.43}]}
{"compound": "COCCN(CCOC)C(=O)[C@]12C[C@H]1[C@H](n1cnc3c(NC(C4CC4)C4CC4)nc(Cl)nc31)[C@@H](O)[C@H]2O", "note": "(single isomer, unassigned)", "values": [{"measurement": "Activity", "setting": "[7]", "value": 0, "unit": "%"}, {"measurement": "Activity", "setting": "[10]", "value": 38, "unit": "%"}, {"measurement": "Activity", "setting": "[5]", "value": 34, "unit": "%"}, {"measurement": "Activity", "setting": "[11]", "value": 30, "unit": "%"}]}
{"compound": "Nc1nc(I)nc2c1ncn2[C@H]1[C@H](O)[C@H](O)[C@]2(CCl)C[C@H]12", "values": [{"measurement": "Activity", "setting": "[7]", "value": 0, "unit": "%"}, {"measurement": "Activity", "setting": "[9]", "value": 11, "unit": "%"}, {"measurement": "Activity", "setting": "[10]", "value": 12, "unit": "%"}, {"measurement": "pKi", "setting": "Adenosine receptor A1", "value": 6.83}, {"measurement": "pKi", "setting": "Adenosine receptor A3", "value": 6.41}]}
{"compound": "CSC[C@@]12C[C@@H]1[C@@H](n1cnc3c(NC(C4CC4)C4CC4)nc(I)nc31)[C@H](O)[C@@H]2O", "values": [{"measurement": "Activity", "setting": "[7]", "value": 16, "unit": "%"}, {"measurement": "pKi", "setting": "[12]", "value": 6.28}, {"measurement": "pKi", "setting": "[4]", "value": 6.31}, {"measurement": "pKi", "setting": "Adenosine receptor A1", "value": 6.33}, {"measurement": "Activity", "setting": "[5]; filed as agonist", "value": 40, "unit": "%"}, {"measurement": "Activity", "setting": "[11]; filed as agonist", "value": 62, "unit": "%"}]}
{"compound": "CC(C)[C@@H](Nc1nc(I)nc2c1ncn2[C@H]1[C@H](O)[C@H](O)[C@]2(CO)C[C@H]12)C1CC1", "values": [{"measurement": "Activity", "setting": "[7]", "value": 7, "unit": "%"}, {"measurement": "pKi", "setting": "[12]", "value": 7.09}, {"measurement": "pKi", "setting": "[4]", "value": 6.04}, {"measurement": "pKi", "setting": "Adenosine receptor A1", "value": 7.51}, {"measurement": "Activity", "setting": "[5]; filed as agonist", "value": 60, "unit": "%"}, {"measurement": "pKi", "setting": "Adenosine receptor A3", "value": 4.93}]}
{"compound": "OC[C@H]1O[C@@H](n2cnc3c(N[C@H](C4CCC4)C4CC4)nc(I)nc32)[C@H](O)[C@@H]1O", "values": [{"measurement": "Activity", "setting": "[7]", "value": 6, "unit": "%"}, {"measurement": "Activity", "setting": "[9]; filed as antagonist", "value": 44, "unit": "%"}, {"measurement": "Activity", "setting": "[10]", "value": -1, "unit": "%"}, {"measurement": "pKi", "setting": "Adenosine receptor A1", "value": 7.67}, {"measurement": "Activity", "setting": "[5]; filed as agonist", "value": 72, "unit": "%"}, {"measurement": "Activity", "setting": "[11]", "value": 34, "unit": "%"}]}
{"compound": "OC[C@@]12C[C@@H]1[C@@H](n1cnc3c(NC(C4CCCCC4)C4CCCCC4)nc(Cl)nc31)[C@H](O)[C@@H]2O", "values": [{"measurement": "Activity", "setting": "[7]; filed as antagonist", "value": 47, "unit": "%"}, {"measurement": "Activity", "setting": "[5]", "value": 7, "unit": "%"}, {"measurement": "pKi", "setting": "Adenosine receptor A3", "value": 4.78}]}
{"compound": "CCOC(=O)[C@@]12C[C@@H]1[C@@H](n1cnc3c(NC(C4CCC4)C4CCC4)nc(Cl)nc31)[C@H](O)[C@@H]2O", "values": [{"measurement": "Activity", "setting": "[1]", "value": 35, "unit": "%"}, {"measurement": "pKi", "setting": "[2]", "value": 6.87}, {"measurement": "pKi", "setting": "[6]", "value": 6.45}]}
